How the values were obtained:
[1] = target: T1, recombinant human FLAP protein (Homo sapiens, UniProt P20292); assay: FLAP binding assay (Scintillation Proximity Assay, displacement of [125I]L-691,831); conditions: read-out: FLAP SPA IC50
T1 construct: made in house; host or cells: Sf9 insect cells (100,000xg membrane fraction used)
T1 sequence (P20292 1-161): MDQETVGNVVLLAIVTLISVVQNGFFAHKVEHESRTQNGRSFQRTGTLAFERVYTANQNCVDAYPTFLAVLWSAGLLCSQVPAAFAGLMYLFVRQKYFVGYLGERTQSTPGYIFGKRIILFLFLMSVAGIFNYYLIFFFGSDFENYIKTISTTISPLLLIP
Method in brief: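 Scintillation proximity displacement of [125I]L-691,831 (0.08 nM) from membranes of sf9 cells expressing recombinant human FLAP (5 μg/well) on WGA SPA beads, pH 7.5 Tris buffer. Plates shaken 2 h before counting. Non-specific binding defined with 10 μM unlabelled L-691,831.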

[2] = system: synthesis of LTB4 in human whole blood; assay: human whole blood LTB4 production inhibition assay; assay type: cell-based; conditions: calcimycin stimulated, read-out: hWB LTB4 IC50
Method in brief: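 Steps: compound plus heparinized human whole blood, 15 min at 37° C; add calcimycin to 20 μM final; incubate another 30 min at 37° C; centrifuge at low speed and collect plasma; measure LTB4 with a homogeneous time-resolved fluorescence immunoassay.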

| Compound | IC50 [1] [nM] | IC50 [2] [nM] |
| --- | --- | --- |
| COCCN(C)C(=O)Cn1cc(-c2nc([C@@](C)(c3ccc(-c4cnc(N)nc4)nc3)C(C)C)no2)cn1 [Example 153, 2-[4-(3-{(R)-1-[6-(2-Amino-pyrimidin-5-yl)-pyridin-3-yl]-1,2-dimethyl-propyl}-1,2,4-oxadiazol-5-yl)-pyrazol-1-yl]-N-(2-methoxy-ethyl)-N-methyl-acetamide] | 16 | 150 |
| CC(C)[C@](C)(c1ccc(-c2cnc(N)nc2)nc1)c1noc(-c2cnn(CC(=O)NC3CCOCC3)c2)n1 [Example 154, 2-[4-(3-{(R)-1-[6-(2-Amino-pyrimidin-5-yl)-pyridin-3-yl]-1,2-dimethyl-propyl}-1,2,4-oxadiazol-5-yl)-pyrazol-1-yl]-N-(tetrahydro-pyran-4-yl)-acetamide] | 21 | 550 |
| COC1CCN(C(=O)Cn2cc(-c3nc([C@@](C)(c4ccc(-c5cnc(N)nc5)nc4)C(C)C)no3)cn2)CC1 [Example 155, 2-[4-(3-{(R)-1-[6-(2-Amino-pyrimidin-5-yl)-pyridin-3-yl]-1,2-dimethyl-propyl}-1,2,4-oxadiazol-5-yl)-pyrazol-1-yl]-1-(4-methoxy-piperidin-1-yl)-ethanone] | 19 | 110 |
| CNc1cnc(-c2ccc([C@](C)(c3noc(-c4cnn(CC(C)(C)O)c4)n3)C3CC3)cn2)cn1 [Example 156, 1-[4-(3-{(R)-1-Cyclopropyl-1-[6-(5-methylamino-pyrazin-2-yl)-pyridin-3-yl]-ethyl}-[1,2,4]oxadiazol-5-yl)-pyrazol-1-yl]-2-methyl-propan-2-ol] | 27 | 54 |
| CNc1cnc(-c2ccc([C@@](C)(c3noc(-c4cnn(CC(C)(C)O)c4)n3)C3CC3)cn2)cn1 [Example 157, 1-[4-(3-{(S)-1-Cyclopropyl-1-[6-(5-methylamino-pyrazin-2-yl)-pyridin-3-yl]-ethyl}-[1,2,4]oxadiazol-5-yl)-pyrazol-1-yl]-2-methyl-propan-2-ol] | 420 | 969 |
| CC(C)(O)Cn1cc(-c2nc(C(C)(c3ccc(-c4cnc(N)c(F)c4)nc3)C3CC3)no2)cn1 (centres unmarked) [Example 158, 1-(4-{3-[1-(6′-Amino-5′-fluoro-[2,3′]bipyridinyl-5-yl)-1-cyclopropyl-ethyl]-[1,2,4]oxadiazol-5-yl}-pyrazol-1-yl)-2-methyl-propan-2-ol] | 230 | 502 |
| CC(C)(O)Cn1cc(-c2nc(C(C)(c3ccc(-c4cnc5[nH]ccc5n4)nc3)C3CC3)no2)cn1 (centres unmarked) [Example 159, 1-[4-(3-{1-Cyclopropyl-1-[6-(5H-pyrrolo[2,3-b]pyrazin-2-yl)-pyridin-3-yl]-ethyl}-[1,2,4]oxadiazol-5-yl)-pyrazol-1-yl]-2-methyl-propan-2-ol] | 27 | 167 |
| C[C@@](c1ccc(-c2cnc(N)cn2)nc1)(c1noc(-c2cnn(C3COC3)c2)n1)C1CC1 [Example 160, 5-(5-{(R)-1-Cyclopropyl-1[5-(1-oxetan-3-yl-1H-pyrazol-4-yl)-[1,2,4]oxadiazol-3-yl]-ethyl}-pyridin-2-yl)-pyrazin-2-ylamine] | 15 | 23 |
| C[C@@](c1ccc(-c2cnc(N)cn2)nc1)(c1noc(-c2cnn(CC#N)c2)n1)C1CC1 [Example 161, [4-(3-{(R)-1-[6-(5-Amino-pyrazin-2-yl)-pyridin-3-yl]-1-cyclopropyl-ethyl}-[1,2,4]oxadiazol-5-yl)-pyrazol-1-yl]-acetonitrile] | 21 | 32 |
| CC(C)(O)Cn1cc(-c2nc([C@@](C)(c3ccc(-c4cnc(N)nc4C#N)nc3)C3CC3)no2)cn1 [Example 163, 2-Amino-5-[5-((R)-1-cyclopropyl-1-{5-[1-(2-hydroxy-2-methyl-propyl)-1H-pyrazol-4-yl]-[1,2,4]oxadiazol-3-yl}-ethyl)-pyridin-2-yl]-pyrimidine-4-carbonitrile] | 290 | 348 |
